Tests used:
C. neoformans H99 [1] = test: microbe, parasite or virus in culture; format: cell-based, Cryptococcus neoformans; conditions: Table S1; unit and conditions not given (MICs elsewhere in μg/mL)
Protocol: (§1) All microdilution assays with fungi were carried out in accordance with CLSI protocols from M27 for yeasts and M38 for filamentous fungi, respectively, unless otherwise specified.[64],[65] Briefly, 96-well plates were charged with RPMI1640 media, with operating volume in the first column, 200 μL, and half operating volume, 100 μL, in the remaining wells. Drug stock solution in DMSO was aliquoted into the first well in each row. Half of the volume in the dosed well was serially diluted 2-fold until column 11. Column 11 was used as the negative growth control, and column 12 was used as the positive growth control. ON yeast cultures in YPD were washed twice in DD-H2O, resuspended in PBS, and adjusted to 5000 cfu/mL in RPMI. The 96-well plate was inoculated with 100 μL aliquots of cell suspension per well. Plates were incubated at 37 °C for 2 days.

C. neoformans cdc50Δ = test: microbe, parasite or virus in culture; format: cell-based, Cryptococcus neoformans; conditions: Table S1; unit and conditions not given (MICs elsewhere in μg/mL)
Protocol: as §1

C. neoformans H99 [2] = format: cell-based, Cryptococcus neoformans; conditions: (FITC)KKOO in combination with AMB
Protocol: as §1, with “Plates were incubated at 37 °C for 2 days.” left out
To assess drug synergy, the initial media charged to the plate contained the peptide at twice the final operating concentration; the remaining processing steps were identical to the MIC experiment. Upon addition of 100 μL of inoculant, the final operating concentration was achieved. Control MIC plates were prepared alongside drug synergy plates to account for the day-to-day variability in any individual MIC. FIC index is computed using eq 1. All MIC assays and drug synergy assays were completed with two technical replicates per 96-well plate and a minimum of two biological replicates per drug combination. If a difference in MIC between the two technical replicates on the plate were observed, only the higher concentration was reported as the MIC to reduce the possibility of type 1 error (false positive) [drawing 1] 1

C. glabrata 2001 = test: microbe, parasite or virus in culture; format: cell-based, Candida glabrata; conditions: Table S1; unit and conditions not given (MICs elsewhere in μg/mL)
Protocol: as §1

C. albicans SC5413 = test: microbe, parasite or virus in culture; format: cell-based, Candida albicans; conditions: Table S1; unit and conditions not given (MICs elsewhere in μg/mL)
Protocol: as §1

## Myristic acid {Dap(FITC)}WGGIOONYA [(FITC)KKOO, FITC labeled version of KKOO]
C. neoformans H99 [1]
  MIC (SAR screen peptides): > 128
C. neoformans cdc50Δ
  MIC (SAR screen peptides): 128
C. neoformans H99 [2]
  FIC index: < 0.5

## WGGIAANYA [KKAA, alanine substituted peptide]
C. neoformans cdc50Δ
  MIC (SAR screen peptides): > 128
C. glabrata 2001
  MIC (SAR screen peptides): > 128

## WGGIAKNYA [K5A, alanine substituted peptide]
C. neoformans cdc50Δ
  MIC (SAR screen peptides): > 128
C. glabrata 2001
  MIC (SAR screen peptides): > 128

## WGGIKANYA [K6A, alanine substituted peptide]
C. neoformans cdc50Δ
  MIC (SAR screen peptides): > 128
C. glabrata 2001
  MIC (SAR screen peptides): > 128

## WGGIKONYA [K6O, single ornithine-substituted AW9-Ma derivative]
C. neoformans H99 [1]
  MIC (SAR screen peptides): 32
C. neoformans cdc50Δ
  MIC (SAR screen peptides): 4
C. albicans SC5413
  MIC (SAR screen peptides): 32
C. glabrata 2001
  MIC (SAR screen peptides): 32

## WGGIOKNYA [K5O, single ornithine-substituted AW9-Ma derivative]
C. neoformans H99 [1]
  MIC (SAR screen peptides): > 128
C. neoformans cdc50Δ
  MIC (SAR screen peptides): 8
C. glabrata 2001
  MIC (SAR screen peptides): > 128

## WGGIOONYA [KKOO-NHMe, C′ methylamide version of KKOO]
C. neoformans H99 [1]
  MIC (SAR screen peptides): 8
C. neoformans cdc50Δ
  MIC (SAR screen peptides): 4
C. albicans SC5413
  MIC (SAR screen peptides): 16
C. glabrata 2001
  MIC (SAR screen peptides): 16

## WGGIOONY{D-Ala} [A9a, D-Ala9 epimer of KKOO]
C. neoformans H99 [1]
  MIC (SAR screen peptides): > 128
C. neoformans cdc50Δ
  MIC (SAR screen peptides): 4
C. albicans SC5413
  MIC (SAR screen peptides): > 128
C. glabrata 2001
  MIC (SAR screen peptides): > 128

## WGGIOO{D-Asn}YA [N7n, D-Asn7 epimer of KKOO]
C. neoformans H99 [1]
  MIC (SAR screen peptides): 32
C. neoformans cdc50Δ
  MIC (SAR screen peptides): 8
C. albicans SC5413
  MIC (SAR screen peptides): > 128
C. glabrata 2001
  MIC (SAR screen peptides): > 128

## WGGIO{D-Orn}NYA [O6o, D-Orn6 epimer of KKOO]
C. neoformans H99 [1]
  MIC (SAR screen peptides): 16
C. neoformans cdc50Δ
  MIC (SAR screen peptides): 4
C. albicans SC5413
  MIC (SAR screen peptides): > 128
C. glabrata 2001
  MIC (SAR screen peptides): > 128

## WGG{D-Ile}OONYA [I4i, D-Ile4 epimer of KKOO]
C. neoformans H99 [1]
  MIC (SAR screen peptides): 16
C. neoformans cdc50Δ
  MIC (SAR screen peptides): 4
C. albicans SC5413
  MIC (SAR screen peptides): > 128
C. glabrata 2001
  MIC (SAR screen peptides): 64

## W{Hyp}GIOONYA [G2HYP, hydroxyproline at position 2, C′ NH2]
C. neoformans H99 [1]
  MIC (SAR screen peptides): 8
C. neoformans cdc50Δ
  MIC (SAR screen peptides): 4
C. albicans SC5413
  MIC (SAR screen peptides): 16
C. glabrata 2001
  MIC (SAR screen peptides): 16

## {D-Trp}GGIOONYA [W1w, D-Trp1 epimer of KKOO]
C. neoformans H99 [1]
  MIC (SAR screen peptides): 16
C. neoformans cdc50Δ
  MIC (SAR screen peptides): 4
C. albicans SC5413
  MIC (SAR screen peptides): > 128
C. glabrata 2001
  MIC (SAR screen peptides): 32

— article PMC11555678, “Improved Broad Spectrum Antifungal Drug Synergies with Cryptomycin, a Cdc50-Inspired Antifungal Peptide” (ACS Infectious Diseases, 2024)
